Where two headings read alike, the source gives them in different places. Where a SMILES comes first, the peptide text is derived from it. Bridges are numbered along the chain shown (N, C = ends). Where no end group is shown, it is not given here. [ ]: non-standard residue; d: D form.
Columns and labels:
[1] = tested on: U2OS cells; experiment: Growth inhibition (MTS assay), U2OS; format: cell-based, Human; conditions: for IC50: 24 hr, MTS; for cell morphology: beginning at about 3 hr post-treatment; for inhibition as measured by the MTS assay: asynchronous culture of U2OS
Excerpt: (§1) Evaluation of Growth Inhibition.

[2] = target: E2F-1/Cyclin A interaction (Homo sapiens, UniProt P20248); experiment: E2F-1/Cyclin A/cdk2 ELISA; format: binding
Procedure: An ELISA was developed to identify antagonists of E2F-1/Cyclin A interaction. This method is based on interactions between three proteins, E2F-1, Cyclin A and cdk2 and is analyzed colorimetrically. This assay was used to determine IC50 values for various synthetic peptides that were used in biological experiments and for SAR studies.
This assay allows determination of IC50 values for various synthetic peptides that were used in biological experiments or for SAR studies.
Nunc Immulon II ELISA plates are coated overnight at 4° C. with 250 μL of […] anti-GST antibody (Pharmacia Biotech) in bicarbonate buffer. Following five washes with wash buffer consisting of 50 mM Tris (pH=7.5), 0.15 M NaCl, and 0.01% Tween-20 (TBST), non-specific sites were blocked for 2 hr at room temperature with 300 μL of assay buffer consisting of 50 mM HEPES (pH=7.5), 0.15 M NaCl, 0.1% Triton X-100, and 5% bovine serum albumin (BSA). Plates were then washed five times in TBST, aspirated dry, and treated with 100 μL of GST-E2F-1 in TBS (25 nM). GST-E2F-1 was incubated at RT for at least 1 hr with non-specific binding (NSB) control wells receiving assay buffer with no protein. Plates were washed five times in TBST and multiple concentrations of test compounds diluted in assay buffer were co-incubated with 5 nM Cyclin A/cdk2 diluted in assay buffer. The Cyclin A/cdk2 complex was freshly prepared by mixing a 1:1 ratio of the two proteins in TBS at 4° C. for 30 min prior to addition to the assay plate. Following incubation for 2 hr at RT, plates were washed five times in TBST, and 100 μL of a 1:500 dilution of a rabbit anti-cdk2 antibody (Santa Cruz) diluted in assay buffer and were added to all wells. Following incubation for at least 1 hr at RT or overnight at 4° C., the plates were washed five times in TBST and 100 μL of a 1:1000 dilution of a HRP-conjugated anti-rabbit IgG antibody (Pierce) were added to all wells. Following a half hour incubation at RT, the plates were washed five times in TBST, aspirated dry, and developed by the addition of 100 μL of a HRP substrate ABTS prepared in sodium citrate buffer (pH=4.2). After 10-15 min, absorbance is read using a microplate reader at 405 nm.

[3] = tested on: MDA-MB-435 cells; experiment: Growth inhibition (MTS assay), MDA-MB-435; format: cell-based, Human; conditions: MDA-MB-435, 24 hr
Excerpt: as §1

[4] = tested on: HCT-116 cells; conditions: read-out: IC50 growth inhibition; HCT-116, 24 hr, MTS
Procedure: (§4) MDA-MB-435, U2OS, A549, MDA-MB-231 cells were maintained in DMEM supplemented with 10% FCS. SW480 and HCT-116 were grown in RPMI 1640 supplemented with 10% FCS.
(§5) Evaluation of Growth Inhibition. 3×10^3 cells/well were plated on a 96 well plate at 10% FCS and cultured overnight. The culture medium was discarded, and the cells were washed once with Opti-MEM. The cell monolayers were incubated at 37° C. with peptide solutions at various concentrations for 24 hr. The growth inhibition was evaluated using solutions composed of 3-(4,5-dimethylthiazol-2-yl)-5-(3-carboxymethoxyphenyl)-2-(4-sulfophenyl)-2H-tetrazolium; MTS (from Promega) and phenazine methosulfate; PMS (from Sigma).

[5] = tested on: SW480 cells; conditions: read-out: IC50 growth inhibition; SW480, 24 hr, MTS
Procedure: as §4, §5

[6] = tested on: Rat1 cells; conditions: read-out: IC50 growth inhibition; Rat1, 24 hr, MTS
Procedure: as §5

[7] = tested on: HeCat cells; conditions: read-out: IC50 growth inhibition, 24 hr, MTS
Procedure: as §5

[8] = tested on: U2OS cells; experiment: Uptake and intracellular compartmentalization (fluorescence microscopy), U2OS; format: cell-based, Human; conditions: 30 and 100 μM, 24 hr
Procedure: (§2) Peptide Treatment and Fluorescence Microscopy. 4×10^4 cells/well were plated on a 48 well plate at 10% FCS and cultured overnight. […] For detection of fluorescein-labeled peptides, cells were rinsed once with PBS (pH=7.3) and visualized using a fluorescence microscope (Axiovert 135 at 320×).
(§3) Uptake and Intracellular Compartmentalization of Tat Peptides. The internalization of the Tat-mt peptide labeled with fluorescein maleimide on the cysteine residue was investigated. The labeled peptide was verified by mass spectrometry and purified by HPLC before use. […] We further repeated the experiments with incubation of the peptide at 30 and 100 μM for 24 hr in osteosarcoma U2OS cells. […] The peptide was tested under the same conditions after direct labeling with fluorescein maleimide. No variation in the amount and localization of the internalized peptide was observed as compared with the Tat-peptide.

[9] = tested on: MDA-MB-435 cells; experiment: Uptake and intracellular compartmentalization (fluorescence microscopy), MDA-MB-435; format: cell-based, Human; conditions: MDA-MB-435, after 30 min of incubation
Procedure: as §2, §3

[10] = tested on: A549 cells; experiment: Growth inhibition (MTS assay), A549; format: cell-based, Human; conditions: A549, 24 hr
Excerpt: as §1

[11] = tested on: MDA-MB-231 cells; conditions: read-out: IC50 growth inhibition; MDA-MB-231, 24 hr, MTS
Procedure: as §4, §5

[12] = tested on: WI38/VA13 SV40 cells; conditions: read-out: IC50 growth inhibition; WI38/VA13 SV40, 24 hr, MTS
Procedure: as §5

[13] = linear peptide, read-out: IC50 Linear
[14] = original identified sequences (linear), read-out: IC50
[15] = cyclic peptides, read-out: ELISA IC50
[16] = cyclized between side-chain amino group of Lys* and carboxyl group of Gly*, read-out: IC50 Cyclic
[17] = E2F-1/Cyclin A/cdk2 ELISA, read-out: IC50

Question: How did the “failed to cause any morphological changes and MTS reading up to” value ([1]; U2OS) turn out when YGRKKRRQRRRG [Tat, reference compound] was run?
Answer: > 300 μM

Question: What does the source list for “YGRKKRRQRRRGPVKRRLDL [Tat-linear, YGRKKRRQRRRG PVKRRLDL]”?
Answer: IC50 [2]: 100 to 1000 nM; IC50 ([1]; U2OS): 28000 to 40000 nM; cell morphology ([1]; U2OS): rounded morphology; inhibition as measured by the MTS assay [1]: dose-dependent inhibition; IC50 [3]: 48000 to 50000 nM; IC50 [4]: 80000 nM; IC50 [5]: 26000 nM; IC50 [6]: > 100000 nM; IC50 [7]: > 100000 nM

Question: Which IC50 [2, 13] does the source give for `CC(=O)N[C@@H](CCCN=C(N)N)C(=O)N[C@@H](CCCCN)C(=O)N[C@@H](CC(C)C)C(=O)N[C@@H](Cc1ccccc1)C(=O)NCC(=O)O` [Ac-Arg-Lys-*Leu-Phe-Gly* (Linear), Ac-Arg-Lys-*Leu-Phe-Gly*] here?
Answer: 30000 nM

Question: Which IC50 [2, 14] does the source give for SACRNLFG [reference compound] here?
Answer: 200 nM

Question: `CC(=O)N[C@@H](C)C(=O)N[C@@H](CCCCN)C(=O)N[C@@H](CCCNC(=N)N)C(=O)N[C@H]1CCCCNC(=O)CNC(=O)[C@H](Cc2ccccc2)NC(=O)[C@H](CC(C)C)NC1=O` [compound 3, Ac-Ala-Lys-Arg-(Lys-Leu-Phe-Gly)] (Ac-AKRKLFG; lactam 4-C) was tested. Which IC50 [2, 15] did it give?
Answer: 10 nM

Question: And the IC50 [2, 16]?
Answer: 10 nM

Question: “Ac-AKRKLFG [Ac-Ala-Lys-Arg-Lys-*Leu-Phe-Gly*]” was tested. Which IC50 [2, 13] did it give?
Answer: 200 nM

Question: For “PAKRKLFG [Pro-Ala-Lys-Arg-Lys-Leu-Phe-GIy]”, which IC50 [2, 13] is on record?
Answer: 100 nM

Question: What about the IC50 [2, 14] of the same compound?
Answer: 100 nM

Question: What does the source list for “FluMalCXYGRKKRRQRRRG PVKARLDL [FITC-Tat-mt]”?
Answer: penetration to the nucleus [8]: 100%; intracellular localization [9]: mainly recovered from the nucleus with a nucleolar accumulation

Question: With “Ac-KRKLFG [Ac-Lys-Arg-Lys-*Leu-Phe-Gly* (Linear), Ac-Lys-Arg-Lys-*Leu-Phe-Gly*]” as the compound, how does the IC50 [2, 13] read?
Answer: 1000 nM

Question: For `CC(=O)N[C@@H](CCCCN)C(=O)N[C@@H](CCCNC(=N)N)C(=O)N[C@H]1CCCCNC(=O)CNC(=O)[C@H](Cc2ccccc2)NC(=O)[C@H](CC(C)C)NC1=O` [compound 4, Ac-Lys-Arg-(Lys-Leu-Phe-Gly)] (Ac-KRKLFG; lactam 3-C), which IC50 [2, 17] is on record?
Answer: 20 nM

Question: And the IC50 [2, 15]?
Answer: 20 nM

Question: And the IC50 [2, 16]?
Answer: 20 nM

Question: What does the source list for `CC(C)C[C@@H]1NC(=O)[C@@H](NC(=O)[C@H](CCCNC(=N)N)NC(=O)[C@H](CCCCN)NC(=O)[C@H](C)NC(=O)[C@H]2CCCN2)CCCCNC(=O)CNC(=O)[C@H](Cc2ccccc2)NC1=O` [compound 2, Pro-Ala-Lys-Arg-(Lys-Leu-Phe-Gly)] (H-[dP]AKRKLFG; lactam 5-C)?
Answer: IC50 [2, 17]: 1 nM; IC50 [2, 15]: 1 nM; IC50 [2, 16]: 1 nM

Question: `CC(C)C[C@@H]1NC(=O)[C@@H](NC(=O)[C@H](CCCNC(=N)N)NC(=O)[C@H](CCCCN)NC(=O)[C@H](C)NC(=O)[C@@H]2CCCN2C(=O)CNC(=O)[C@H](CCCNC(=N)N)NC(=O)[C@H](CCCNC(=N)N)NC(=O)[C@H](CCCNC(=N)N)NC(=O)[C@H](CCC(N)=O)NC(=O)[C@H](CCCNC(=N)N)NC(=O)[C@H](CCCNC(=N)N)NC(=O)[C@H](CCCCN)NC(=O)[C@H](CCCCN)NC(=O)[C@H](CCCNC(=N)N)NC(=O)CNC(=O)[C@@H](N)Cc2ccc(O)cc2)CCCCNC(=O)CNC(=O)[C@H](Cc2ccccc2)NC1=O` [Tat-cyclic, YGRKKRRQRRRG PAKR(KLFG)] (H-YGRKKRRQRRRGPAKRKLFG; lactam 17-C) was tested. Which IC50 [2] did it give?
Answer: 100 to 1000 nM

Question: What about the IC50 ([1]; U2OS) of the same compound?
Answer: 6000 to 7000 nM

Question: And the cell morphology ([1]; U2OS)?
Answer: rounded morphology

Question: What about the “inhibition as measured by the MTS assay” value [1] of the same compound?
Answer: dose-dependent inhibition

Question: And the IC50 [3]?
Answer: 6000 to 7000 nM

Question: What about the IC50 [10] of the same compound?
Answer: 26000 to 46000 nM

Question: What about the IC50 [11] of the same compound?
Answer: 6000 to 7000 nM

Question: What about the IC50 [12] of the same compound?
Answer: 6000 to 7000 nM

— patent publication US20040077549A1, “Inhibitors of the E2F-1/cyclin interaction for cancer therapy” (priority 2000, published 2004)
